Source: US8648011B2, “Herbicidal compositions” (Syngenta Crop Protection LLC, priority 2009, dated 2014)

System: maize
Experiment: Glass house test of safening effect on herbicide A, post-emergence application, phytotoxicity in maize
Format: in vivo
Conditions: for Phytotoxicity (%): post-emergence, maize, 24 DAA
Procedure: A glass house test was carried out to determine the safening effect of numerous safeners on a compound of Formula (I) with respect to maize. Various herbicidal compositions were applied post-emergence and the observed phytotoxicity in maize assessed 24 days after application (24DAA). A=2-chloro-5-[3,6-dihydro-3-methyl-2,6-dioxo-4-(trifluoromethyl)-1(2H)-pyrimidinyl]-4-fluoro-N-[[methyl(1-methylethyl)amino]sulfonyl]benzamide; B=1-[4-(N-2-methoxybenzoylsulfamoyl)phenyl]-3-methylurea.

[1] = safener 100 g/ha applied with herbicide A 100 g/ha
[2] = safener 250 g/ha applied with herbicide A 250 g/ha

Row | SMILES | safening of the 3-phenyluracil herbicide A in maize (in vivo) | Phytotoxicity (%) [1] [%] | Phytotoxicity (%) [2] [%] | Phytotoxicity (%) (herbicide A 100 g/ha, no safener) | Phytotoxicity (%) (herbicide A 250 g/ha, no safener)
1 | CNC(=O)Nc1ccc(S(=O)(=O)NC(=O)c2ccccc2OC)cc1 [B, 1-[4-(N-2-methoxybenzoylsulfamoyl)phenyl]-3-methylurea] | surprisingly good safening | – | – | – | –
2 | CC1(C(=O)O)CC(C(=O)O)=NN1c1ccc(Cl)cc1Cl (stereo not drawn) [Mefenpyr] | – | 30 | 40 | – | –
3 | O=C(O)COc1ccc(Cl)c2cccnc12 [Cloquintocet] | – | 25 | 35 | – | –
4 | O=C(O)C1=NOC(c2ccccc2)(c2ccccc2)C1 [Isoxadifen] | – | 28 | 30 | – | –
5 | CC(C)N(C)S(=O)(=O)NC(=O)c1cc(-n2c(=O)cc(C(F)(F)F)n(C)c2=O)c(F)cc1Cl [A, 2-chloro-5-[3,6-dihydro-3-methyl-2,6-dioxo-4-(trifluoromethyl)-1(2H)-pyrimidinyl]-4-fluoro-N-[[methyl(1-methylethyl)amino]sulfonyl]benzamide] | – | – | – | 25 | 35
